Source: patent US20250066395A1, “Detecting and Separating Rare Earth Metal Mixtures” (Board of Regents, The University of Texas System, priority 2023, published 2025)

Text: We have selected water and ethyl acetate (EtOAc) for their “green solvent” properties of being safe to handle, eco-friendly, little to no hazardous waste, etc.

| Soluble in water | Substance |
| --- | --- |
| soluble | scandium |
| soluble | yttrium |
